In EP1161957A1, “Complex for transferring an anionic substance of interest into a cell” (TRANSGENE S.A., priority 2000, dated 2001) one finds toxicity data, which are given here for one sequence.

The data set concerns B6SJL mice. The settings on record: intravenous injection of pTG11236/peptide complexes, dead mice per group of five. Here is the method: Indicated amounts of the luciferase expression plasmid pTG11236 were mixed with ppTG1 and /or pcTG90/DOPE. […] Muscles, tumors or organs were recovered at the indicated points of time, macerated and tested for luciferase activity with the luciferase assay kit from Promega.
After 20 min incubation at room temperature, the complexes were intravenously injected into B6SJL mice. Mice were sacrificed at day 1. The lungs were recovered, total protein was extracted and luciferase activity was analysed.
The potential of gene transfer with mono-component peptide vectors was investigated in vivo. […] Five mice per group were intravenously injected, the animals were sacrificed at day 1 after injection. Lungs were tested for luciferase activity.

Ends that are not written are not given here.

In the case of GLFRALLRLLRSLWRLLLRA [ppTG20], the toxicity result is listed as “less toxic than ppTG1”.
